Assay results taken from publication PMC9684503 (Communications Biology, 2022).
Where a name gives a salt, the structure may show the parent alone.

Molecular target: T1, rat VMAT2-His (Rattus norvegicus, UniProt Q01827)
T1 construct: The ORF of rat VMAT2 was subcloned into a pFastBac vector; His; made in house; host or cells: Sf9 insect cells (baculovirus)
Assay: Differential scanning fluorimetry (DSF) with CPM dye: change of melting temperature of purified VMAT2
Type: binding
Conditions: for ΔTm at 12 µM: compound 0,12 µM; for ΔTm at 12 µM / ΔTm at 37 µM / ΔTm at 10 µM / ΔTm at 30 µM / ΔTm at 90 µM / ΔTm at 270 µM / ΔTm at 11 µM / ΔTm at 33 µM: read-out: ΔTm; for ΔTm at 37 µM: compound 0,37 µM; for ΔTm at 270 µM: compound 270 µM; for ΔTm at 11 µM: compound 1,11 µM; for ΔTm at 33 µM: compound 3,33 µM
Procedure: To screen purified VMAT2 by DSF we expressed the rat VMAT2 protein, as VMAT2-His, in SF9 insect cells using the baculovirus expression system. The transporter was solubilized and purified in n-Dodecyl-β-D-maltoside (DDM)/cholesterol hemisuccinate (CHS) micelles by immobilized metal affinity chromatography (IMAC) and size exclusion chromatography (SEC). […] Screening was performed using DSF and the thiol-reactive dye 7-diethylamino-3-(4-maleimidophenyl)-4-methylcoumarin (CPM), an approach that monitors changes to the protein melting temperature (Tm) upon compound binding. Using CPM or other dyes, DSF-based assays have successfully been used in molecular-based screenings[34],[35]. […] DSF screening was performed in 384 well plates using the thiol-sensing dye 7-diethylamino-3-(4-maleimidophenyl)-4-methylcoumarin (CPM) (Merck). […] Protein melting curves were determined using a LightCycler 480 ii RT-PCR system (Roche), with a temperature ramp increasing from 25 to 95 °C at a rate of 2 °C/min. Data analysis was performed using an in-house software that automatically determines the protein midpoint melting temperature (Tm) based on the second derivative of the melting curves or using the HTSDSF explorer as described in ref. [58]. […] 6 μl of this mix was dispensed to each well of 384 well plates using a Multidrop™ Combi Reagent Dispenser (Thermo Scientific). […] All initial hits were then subjected to an initial validation in triplicates with a compound concentration of 200 μM and a ΔTm > 5× the standard deviation (SD) cut off. […] Processing of the data from the primary screening and the concentration-dependent validation was performed as reported.

[1] = Table S1, primary hits, average change in melting temperature vs controls, triplicates
[2] = Table S2 dose response, compound 10 µM
[3] = Table S2 dose response, compound 30 µM
[4] = Table S2 dose response, compound 90 µM

T1 sequence (Q01827 whole entry): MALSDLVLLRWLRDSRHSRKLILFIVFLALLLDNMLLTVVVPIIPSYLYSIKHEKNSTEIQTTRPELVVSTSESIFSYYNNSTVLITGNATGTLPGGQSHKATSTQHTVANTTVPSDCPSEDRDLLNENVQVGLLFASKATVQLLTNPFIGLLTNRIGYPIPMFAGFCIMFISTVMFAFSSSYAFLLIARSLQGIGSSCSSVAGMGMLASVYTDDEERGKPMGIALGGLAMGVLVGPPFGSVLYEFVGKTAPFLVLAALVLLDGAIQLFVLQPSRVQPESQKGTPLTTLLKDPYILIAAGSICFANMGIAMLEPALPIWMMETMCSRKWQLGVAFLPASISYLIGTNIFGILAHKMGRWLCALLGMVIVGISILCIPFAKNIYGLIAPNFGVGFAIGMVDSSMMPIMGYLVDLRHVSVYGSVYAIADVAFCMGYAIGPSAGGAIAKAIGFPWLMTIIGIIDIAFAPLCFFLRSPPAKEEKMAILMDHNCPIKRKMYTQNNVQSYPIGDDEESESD

`C[C@H](CCC(=O)O)[C@H]1CC[C@H]2[C@@H]3[C@H](O)C[C@@H]4C[C@H](O)CC[C@]4(C)[C@H]3CC[C@]12C` [Chenodiol] was tested, and the ΔTm [1] was 1,98 ± 0,15 oC, the ΔTm at 12 µM (Table S2 dose response) was -0.11 °C and the ΔTm at 37 µM (Table S2 dose response) was -0.01 °C. For the same compound, the ΔTm at 10 µM [2] was 0.64 °C, the ΔTm at 30 µM [3] was 0.35 °C and the ΔTm at 90 µM [4] was 0.57 °C. For the same compound, the ΔTm at 270 µM (Table S2 dose response) was 2.24 °C, the ΔTm at 11 µM (Table S2 dose response) was 0.17 °C and the ΔTm at 33 µM (Table S2 dose response) was 0.19 °C.

`CCCc1nn(C)c2c(=O)[nH]c(-c3cc(S(=O)(=O)N4CCN(C)CC4)ccc3OCC)nc12` [Sildenafil] was tested, and the ΔTm [1] was 1,10 ± 0,14 oC, the ΔTm at 12 µM (Table S2 dose response) was 0.43 °C and the ΔTm at 37 µM (Table S2 dose response) was 0.04 °C. For the same compound, the ΔTm at 10 µM [2] was 0.11 °C, the ΔTm at 30 µM [3] was 0.1 °C and the ΔTm at 90 µM [4] was 0.39 °C. For the same compound, the ΔTm at 270 µM (Table S2 dose response) was 1.04 °C, the ΔTm at 11 µM (Table S2 dose response) was 0.04 °C and the ΔTm at 33 µM (Table S2 dose response) was 0.09 °C.

Work on `CC(NCCC(c1ccccc1)c1ccccc1)c1ccccc1` (stereo not shown) [Fendiline hydrochloride] yielded a ΔTm at 10 µM [2] of -0.22 °C, a ΔTm at 30 µM [3] of -0.24 °C and a ΔTm at 90 µM [4] of -1.16 °C. For the same compound, the ΔTm at 270 µM (Table S2 dose response) was -3.27 °C.

For `CC(C)(C)c1ccc(C(O)CCCN2CCC(C(O)(c3ccccc3)c3ccccc3)CC2)cc1` (stereo not shown) [Terfenadine], the ΔTm [1] was -13,22 ± 0,13 oC, the ΔTm at 10 µM [2] was 0.21 °C and the ΔTm at 30 µM [3] was 0.24 °C. For the same compound, the ΔTm at 90 µM [4] was -0.01 °C and the ΔTm at 270 µM (Table S2 dose response) was -0.6 °C.

`Fc1ccc(C(OCCN2CCN(CCCc3ccccc3)CC2)c2ccc(F)cc2)cc1` [GBR 12909 dihydrochloride] was tested, and the ΔTm [1] was -17,11 ± 0,01 oC, the ΔTm at 12 µM (Table S2 dose response) was -0.02 °C and the ΔTm at 37 µM (Table S2 dose response) was -0.01 °C. The ΔTm at 10 µM [2] was -1.07 °C, the ΔTm at 30 µM [3] was -1.67 °C and the ΔTm at 90 µM [4] was -2.3 °C. For the same compound, the ΔTm at 270 µM (Table S2 dose response) was -5.4 °C, the ΔTm at 11 µM (Table S2 dose response) was 0.05 °C and the ΔTm at 33 µM (Table S2 dose response) was -0.34 °C.

`C1CCC(C(CC2CCCCN2)C2CCCCC2)CC1` (stereo not shown) [Perhexiline maleate] gave a ΔTm at 10 µM [2] of -0.18 °C, a ΔTm at 30 µM [3] of -0.27 °C and a ΔTm at 90 µM [4] of -1.17 °C. The ΔTm at 270 µM (Table S2 dose response) was -3.23 °C.

In the case of `Cc1cccc(C)c1NC(=O)CN1CCN(CCCC(c2ccc(F)cc2)c2ccc(F)cc2)CC1` [Lidoflazine], the ΔTm [1] is reported as 1,35 ± 0,18 oC, the ΔTm at 12 µM (Table S2 dose response) is reported as 0.23 °C and the ΔTm at 37 µM (Table S2 dose response) is reported as 0.05 °C. The ΔTm at 10 µM [2] was 0.23 °C, the ΔTm at 30 µM [3] was 0.21 °C and the ΔTm at 90 µM [4] was 0.33 °C. The ΔTm at 270 µM (Table S2 dose response) was 1.14 °C, the ΔTm at 11 µM (Table S2 dose response) was 0.12 °C and the ΔTm at 33 µM (Table S2 dose response) was 0.16 °C.

For `O=C(c1ccc(F)cc1)C1CCN(CCn2c(=O)[nH]c3ccccc3c2=O)CC1` [Ketanserin tartrate hydrate], the ΔTm [1] was 3,12 ± 0,24 oC, the ΔTm at 10 µM [2] was 1.16 °C and the ΔTm at 30 µM [3] was 1.17 °C. For the same compound, the ΔTm at 90 µM [4] was 0.95 °C and the ΔTm at 270 µM (Table S2 dose response) was 2.18 °C.

In the case of `CN1CCCC(n2nc(Cc3ccc(Cl)cc3)c3ccccc3c2=O)CC1` (stereo not shown) [Azelastine HCl], the ΔTm [1] is reported as 0,85 ± 0,24 oC, the ΔTm at 10 µM [2] is reported as -0.6 °C and the ΔTm at 30 µM [3] is reported as 0.35 °C. The ΔTm at 90 µM [4] was 0.23 °C and the ΔTm at 270 µM (Table S2 dose response) was 0.55 °C.

`CCCCCCC[N+](CC)(CC)CCCCc1ccc(Cl)cc1.Cc1ccc(S(=O)(=O)[O-])cc1` [Clofilium tosylate] was tested, and the ΔTm (270 µM) was -2,26 oC, the ΔTm [2] was -0,06 oC and the ΔTm [3] was -0,15 oC. The ΔTm [4] was -0,36 oC.

For `CC(CCc1ccccc1)NCC(O)c1ccc(O)c(C(N)=O)c1` (stereo not shown) [Labetalol hydrochloride], the ΔTm [1] was 0,81 ± 0,07 oC, the ΔTm at 10 µM [2] was 0.27 °C and the ΔTm at 30 µM [3] was 0.42 °C. The ΔTm at 90 µM [4] was 0.1 °C and the ΔTm at 270 µM (Table S2 dose response) was 0.24 °C.

`CC(C)(C)NC(=O)[C@@H]1C[C@@H]2CCCC[C@@H]2CN1C[C@@H](O)[C@H](Cc1ccccc1)NC(=O)[C@H](CC(N)=O)NC(=O)c1ccc2ccccc2n1` [Saquinavir mesylate] gave a ΔTm at 12 µM (Table S2 dose response) of -0.17 °C, a ΔTm at 37 µM (Table S2 dose response) of -0.28 °C and a ΔTm at 10 µM [2] of -0.91 °C. For the same compound, the ΔTm at 30 µM [3] was -0.7 °C, the ΔTm at 90 µM [4] was -0.55 °C and the ΔTm at 270 µM (Table S2 dose response) was -1.64 °C. For the same compound, the ΔTm at 11 µM (Table S2 dose response) was -0.49 °C and the ΔTm at 33 µM (Table S2 dose response) was -0.65 °C.

`OC(c1cc(C(F)(F)F)nc2c(C(F)(F)F)cccc12)C1CCCCN1` (stereo not shown) [Mefloquine hydrochloride] was tested, and the ΔTm [1] was -11,15 ± 0,23 oC, the ΔTm at 12 µM (Table S2 dose response) was -0.02 °C and the ΔTm at 37 µM (Table S2 dose response) was 0.04 °C. It also gave a ΔTm at 10 µM [2] of 0.1 °C, a ΔTm at 30 µM [3] of 0.21 °C and a ΔTm at 90 µM [4] of 0.09 °C. For the same compound, the ΔTm at 270 µM (Table S2 dose response) was 0.08 °C, the ΔTm at 11 µM (Table S2 dose response) was 0 °C and the ΔTm at 33 µM (Table S2 dose response) was -0.11 °C.

For `CC(C(O)c1ccc(O)cc1)N1CCC(Cc2ccccc2)CC1.CC(C(O)c1ccc(O)cc1)N1CCC(Cc2ccccc2)CC1.O=C(O)C(O)C(O)C(=O)O` (stereo not shown) [Ifenprodil tartrate], the ΔTm (11 µM) was -0,20 oC, the ΔTm (12 µM) was 0,30 oC and the ΔTm (33 µM) was 0,14 oC. The ΔTm (37 µM) was 0,32 oC, the ΔTm (270 µM) was 0,41 oC and the ΔTm [1] was 1,23 ± 0,40 oC. For the same compound, the ΔTm [2] was 0,09 oC, the ΔTm [3] was 0,06 oC and the ΔTm [4] was -0,04 oC.
